Here are results for one compound from patent US20260085058A1, “DEGRADERS OF SON OF SEVENLESS HOMOLOG 1” (H. LEE MOFFITT CANCER CENTER AND RESEARCH INSTITUTE, INC., priority 2022, published 2026).

For one test, the system named is SW620 cells. Put plainly: Multiplexed quantitative global proteomics, specificity of SOS1 degradation. The following applies: 1 μM, 24 hours, vs DMSO. In kind it is cell-based. The method, then: Sample Preparation: Approximately 10 millions of SW620 cells were treated with 1 μM P7 or 0.2% DMSO for 24 hours, respectively. Triplicate samples for each condition were provided as cell pellets. Cells were lysed in denaturing lysis buffer containing 8M urea, 20 mM HEPES (pH 8), 1 mM sodium orthovanadate, 2.5 mM sodium pyrophosphate and 1 mM β-glycerophosphate. A Bradford assay was carried out to determine the protein concentration. The proteins were reduced with 4.5 mM DTT and alkylated with 10 mM iodoacetamide. Trypsin digestion was carried out at room temperature overnight, and tryptic peptides were then acidified with 1% trifluoroacetic acid (TFA) and desalted with C18 Sep-Pak cartridges according to the manufacturer's procedure. TMT Labeling: 100 μg of peptide from each sample was labeled with TMTPro16plex reagent. The label incorporation was checked by LC-MS/MS and spectral counting. […] The samples were then pooled and lyophilized. High pH Reversed Phase Peptide Separation: After lyophilization, the peptides were re-dissolved in 250 μL of 20 mM ammonium formate (pH 10.0). […]
Data Analysis: MaxQuant (version 1.6.14.0)^54 was used to identify proteins and quantify the TMT reporter ion intensities with default settings. […] Samples were normalized within-plex using the Moffitt standard proteomics normalization pipeline iterative rank-order normalization (IRON).^55 Median sample was determined to be Plex_1_TMT-131, DMSO_2. […] Log2 ratios were calculated as the difference between average treatment—average DMSO. P-values were calculated using Welch's 2-sided T-tests, assuming unequal variance. Differentially abundant proteins were determined by having a log 2 ratio ≥2 standard deviations from the mean (+0.1089/−0.1131) and a P-value <0.05. […]

In another test the test system is Annexin V. Put plainly: Annexin V expression by IHC in CRC patient-derived organoid models. The test is classed as cell-based, human. Particulars: MCC19990-010 and MCC19990-013 PDOs, 1 μM, 24 hours, vs DMSO. On the procedure: To one or two confluent wells of organoids was added 1:5 diluted 500 μL of 5 units/mL dispase in HBSS (StemCell: 07913) and incubated at 37° C. in 5% CO2 atmosphere. Organoids were harvested and transferred to a 1.5 mL Eppendorf tube. The pellet was collected after centrifugation at 1500 rpm for 6 min, and washed with 1×PBS. The pellet was resuspended in 1 mL of 4% PFA and incubated at 4° C. overnight. The pellet was resuspended in 100 μL of 37° C. warmed histogel, centrifuged at 1000 rpm for 30 seconds to settle the organoids. The gel was allowed to polymerize at 4° C. for 10 minutes and then the plug was transferred to a 5 mL tube containing 2 mL 70% ethanol, and sent to the histology lab. Organoids were paraffin-embedded and subjected to serial sections for hematoxylin and eosin staining and immunohistochemistry following a common procedure at the histology lab. The slides/sections were cut at 4 micron thickness using a Leica RM2245 microtome. Charged slides were used.
Immunohistochemical staining of SOS1 on organoids: Slides were stained using a Ventana Discovery Ultra automated system (Ventana Medical Systems, Tucson, AZ) as per manufacturer's protocol with proprietary reagents. Briefly, slides were deparaffinized on the automated system with Discovery Wash Solution (Ventana). Heat-induced antigen retrieval method was used in Cell Conditioning 1 Mild (Ventana). […]

SMILES strings stand for the structures.

With `COc1cc2c(N[C@H](C)c3cc(N)cc(C(F)(F)F)c3)nc(C)nc2cc1OCC(=O)Nc1cccc2c1CN(C1CCC(=O)NC1=O)C2=O` (stereo partly drawn) [P7, 2-((4-(((R)-1-(3-amino-S-(trifluoromethyl)phenyl)ethyl)amino)-6-methoxy-2-methylquinazolin-7-yl)oxy)-N-(2-(2,6-dioxopiperidin-3-yl)-1-oxoisoindolin-4-yl)acetamide], in the test with SW620 cells, the “Change in SOS1 protein abundance (specificity of degradation)” value is “among the most degraded proteins”; the “Degradation of GSPT1 and zinc finger transcription factors IKZF1/3” value is listed as “without cereblon-binding lenalidomide induced degradation”; the “Upregulated proteins (ABCG1, SCAP)” value is given as “significantly upregulated”. Moreover, the “Annexin V expression by IHC” value in the test with Annexin V is “increased membranous expression of Annexin V”.
